Data from US8551984B2, “Aminopyrimidines as SYK inhibitors” (Merck Sharp & Dohme Corp., priority 2009, dated 2013).

molecular target: rhSYK (Homo sapiens, UniProt P43405); settings: read-out: rhSYK Activity; Table 117

| IC50 | Structure (SMILES) |
| --- | --- |
| < 0.1 µM | Cc1cc(Nc2nccc(C(F)(F)F)n2)cc(-c2cnc(C3(O)CCC(CC(N)=O)CC3)s2)c1 (stereo not drawn) [Example 117-9] |
| < 0.1 µM | Cc1cc(Nc2nccc(C(F)(F)F)n2)cc(-c2cnc(C3(O)CCC(CC(N)=O)CC3)s2)c1 (stereo not drawn) [Example 117-10] |

same assay, conditions: read-out: rhSYK Activity; Table 119; two symbols in a cell = one per listed form

| IC50 | Structure (SMILES) |
| --- | --- |
| < 0.1 µM | Cc1cc(Nc2nccc(C(C)C)n2)cc(-c2cnc(C3(O)CCC(C(N)=O)C(C)C3)s2)c1 (stereo not drawn) [Example 119-11] |
| < 0.1 µM | COc1ccnc(Nc2cc(C)cc(-c3cnc(C4(O)CCC(C(N)=O)C(C)(C)C4)s3)c2)n1 (stereo not drawn) [Example 119-13] |
| < 0.1 µM | Cc1cc(Nc2nccc(C(C)O)n2)cc(-c2cnc(C3(O)CCC(C(N)=O)C(C)(C)C3)s2)c1 (stereo not drawn) [Example 119-121] |
| < 0.1 µM | Cc1cc(Nc2nccc(C(C)F)n2)cc(-c2cnc(C3(O)CCC(C(N)=O)C(C)(C)C3)s2)c1 (stereo not drawn) [Example 119-123] |
| < 0.1 µM | Cc1cc(Nc2nccc(OC(C)C)n2)cc(-c2cnc(C3(O)CCC(C(N)=O)C(C)(C)C3)s2)c1 (stereo not drawn) [Example 119-126] |
| < 0.1 µM | Cc1cc(Nc2nccc(C(F)(F)F)n2)cc(-c2cnc(C3(O)CCC(C(N)=O)C(C)(C)C3)s2)c1 (stereo not drawn) [Example 119-132] |

molecular target: recombinant human SYK (GST-hSYK fusion protein) (Homo sapiens, UniProt P43405); settings: read-out: rhSYK Activity (IC50); recombinant human GST-SYK 5 pM, ATP 25 μM, biotinylated substrate peptide 250 nM, HTRF, 10-dose titration
Excerpt: Homogeneous Time-Resolved Fluorescence (HTRF) Assay for the Recombinant Human SYK Enzyme:

| IC50 | Structure (SMILES) |
| --- | --- |
| < 0.1 µM | Cc1cc(Nc2nccc(C(F)(F)F)n2)cc(-c2cnc([C@]3(O)CCC(=O)NC[C@H]3O)s2)c1 (relative stereo) [161(A), [cis]5,6-dihydroxy-5-[5-(3-methyl-5-{[4-(trifluoromethyl)pyrimidin-2-yl]amino}phenyl)-1,3-thiazol-2-yl]azepan-2-one] |
| < 0.1 µM | Cc1cc(Nc2nccc(C(F)(F)F)n2)cc(-c2cnc(C3CCC(C(N)=O)C(C)(C)C3)s2)c1 (single isomer, unassigned) [154(b), 2,2-Dim ethyl-4-[5-(3-methyl-5-{[4-(trifluoromethyl)pyrimidin-2-yl]amino}phenyl)-1,3-thiazol-2-yl]cyclohexanecarboxamide] |
| < 0.1 µM | Cc1cc(Nc2nccc(C(F)(F)F)n2)cc(-c2cnc(C3CCC(C(N)=O)C(C)(C)C3)s2)c1 (single isomer, unassigned) [154(c), 2,2-Dim ethyl-4-[5-(3-methyl-5-{[4-(trifluoromethyl)pyrimidin-2-yl]amino}phenyl)-1,3-thiazol-2-yl]cyclohexanecarboxamide] |
| < 0.1 µM | Cc1cc(Nc2nccc(C(F)(F)F)n2)cc(-c2cnc(C3CCC(C(N)=O)C(C)(C)C3)s2)c1 (single isomer, unassigned) [154(d), 2,2-Dim ethyl-4-[5-(3-methyl-5-{[4-(trifluoromethyl)pyrimidin-2-yl]amino}phenyl)-1,3-thiazol-2-yl]cyclohexanecarboxamide] |
| < 0.1 µM | Cc1cc(Nc2nccc(C(F)(F)F)n2)cc(-c2cnc(C3(O)CCNC(=O)CC3O)s2)c1 (single isomer, unassigned) [161(D), 4,5-dihydroxy-5-[5-(3-methyl-5-{[4-(trifluoromethyl)pyrimidin-2-yl]amino}phenyl)-1,3-thiazol-2-yl]azepan-2-one] |

same assay, conditions: read-out: rhSYK Activity; Table 10, Formula A

| IC50 | Structure (SMILES) |
| --- | --- |
| < 0.1 µM | Cc1cc(Nc2nccc(C(C)C)n2)cc(-c2cnc(C3(O)CCNC(=O)CC3)s2)c1 (single isomer, unassigned) [Example 10A-3] |

same assay, conditions: read-out: rhSYK Activity; Table 33-A

| IC50 | Structure (SMILES) |
| --- | --- |
| < 0.1 µM | Cc1cc(Nc2ncc(Cl)cn2)cc(-c2cnc(C3(O)CCC(C(=O)O)C(C)(C)C3)s2)c1 (single isomer, unassigned) [Example 33A-44] |
| < 0.1 µM | COC(=O)C1CCC(O)(c2ncc(-c3cc(CO)cc(Nc4nccc(C(F)(F)F)n4)c3)s2)CC1(C)C (single isomer, unassigned) [Example 33A-52] |
| < 0.1 µM | CC1(C)CC(O)(c2ncc(-c3cc(Nc4nccc(C(F)(F)F)n4)cc(C(F)F)c3)s2)CCC1C(=O)O (single isomer, unassigned) [Example 33A-58] |
| < 0.1 µM | CC1(C)CC(O)(c2ncc(-c3cc(F)cc(Nc4nccc(C(F)(F)F)n4)c3)s2)CCC1C(=O)O (single isomer, unassigned) [Example 33A-64] |
| < 0.1 µM | CC1(C)CC(O)(c2ncc(-c3cccc(Nc4nccc(C(F)(F)F)n4)c3)s2)CCC1C(=O)O (single isomer, unassigned) [Example 33A-67] |
| < 0.1 µM | COc1ccnc(Nc2cc(C)cc(-c3cnc(C4(O)CCC(C(=O)O)C(C)(C)C4)s3)c2)n1 (single isomer, unassigned) [Example 33A-73] |
| < 0.1 µM | Cc1cc(Nc2nccc(C(F)(F)F)n2)cc(-c2cnc(C3(O)CCC(C(=O)O)C(C)(C)C3C)s2)c1 (single isomer, unassigned) [Example 33A-78] |

same assay, conditions: read-out: rhSYK Activity; Table 33B

| IC50 | Structure (SMILES) |
| --- | --- |
| < 0.1 µM | Cc1cc(Nc2nccc(C(F)(F)F)n2)cc(-c2cnc(C3(O)CCC(CC(=O)O)C3)s2)c1 (single isomer, unassigned) [Example 33B-26] |
| < 0.1 µM | Cc1cc(Nc2nccc(C(F)(F)F)n2)cc(-c2cnc(C3(O)CCC(CC(=O)O)C3)s2)c1 (single isomer, unassigned) [Example 33B-27] |
| < 0.1 µM | Cc1cc(Nc2nccc(C(F)(F)F)n2)cc(-c2cnc(C3(O)CCC(CC(=O)O)C3)s2)c1 (single isomer, unassigned) [Example 33B-28] |

same assay, conditions: read-out: rhSYK Activity; Table 33C

| IC50 | Structure (SMILES) |
| --- | --- |
| < 0.1 µM | Cc1cc(Nc2nccc(C(F)(F)F)n2)cc(-c2cnc(C3(O)CC[C@H]4C(C(=O)O)[C@H]43)s2)c1 (single isomer, unassigned) [Example 33C-7] |
| < 0.1 µM | Cc1cc(Nc2nccc(C(F)(F)F)n2)cc(-c2cnc(C3(O)CC[C@H]4C(C(=O)O)[C@H]43)s2)c1 (single isomer, unassigned) [Example 33C-8] |

same assay, conditions: read-out: rhSYK Activity; Table 33D

| IC50 | Structure (SMILES) |
| --- | --- |
| < 0.1 µM | Cc1cc(Nc2nccc(C(F)(F)F)n2)cc(-c2cnc(C(C)(O)CCC(C)(C)C(=O)O)s2)c1 (single isomer, unassigned) [Example 33D-2] |
| < 0.1 µM | Cc1cc(Nc2nccc(C(F)(F)F)n2)cc(-c2cnc(C(C)(O)c3ccc(C(=O)O)s3)s2)c1 (single isomer, unassigned) [Example 33D-22] |

same assay, conditions: read-out: rhSYK Activity; Table 45

| IC50 | Structure (SMILES) |
| --- | --- |
| 0.1 to 1 µM | Cc1cc(Nc2nccc(C(F)(F)F)n2)cc(-c2cnc(C3(O)CCCN(C(=O)OC(C)(C)C)CC3)s2)c1 (single isomer, unassigned) [45-2] |

same assay, conditions: read-out: rhSYK Activity; Table 54D

| IC50 | Structure (SMILES) |
| --- | --- |
| < 0.1 µM | Cc1cc(Nc2nccc(C(F)(F)F)n2)cc(-c2cnc(C3(O)CCCN(C(=O)CC(N)=O)CC3)s2)c1 (single isomer, unassigned) [Example 54D-21] |
| < 0.1 µM | Cc1cc(Nc2nccc(C(F)(F)F)n2)cc(-c2cnc(C3(O)CCCN(C(=O)CC(=O)O)CC3)s2)c1 (single isomer, unassigned) [Example 54D-26] |
| < 0.1 µM | Cc1cc(Nc2nccc(C(F)(F)F)n2)cc(-c2cnc(C3(O)CCCN(C(=O)C(O)CO)CC3)s2)c1 (single isomer, unassigned) [Example 54D-29] |
| < 0.1 µM | Cc1cc(Nc2nccc(C(F)(F)F)n2)cc(-c2cnc(C3(O)CCCN(C(=O)c4cnn[nH]4)CC3)s2)c1 (single isomer, unassigned) [Example 54D-37] |
| < 0.1 µM | Cc1cc(Nc2nccc(C(F)(F)F)n2)cc(-c2cnc(C3(O)CCCN(C(=O)c4cnon4)CC3)s2)c1 (single isomer, unassigned) [Example 54D-39] |
| < 0.1 µM | Cc1cc(Nc2nccc(C(F)(F)F)n2)cc(-c2cnc(C3(O)CCCN(C(=O)CCC(N)=O)CC3)s2)c1 (single isomer, unassigned) [Example 54D-42] |
| < 0.1 µM | Cc1cc(Nc2nccc(C(F)(F)F)n2)cc(-c2cnc(C3(O)CCCN(C(=O)c4cnnn4C)CC3)s2)c1 (single isomer, unassigned) [Example 54D-51] |
| < 0.1 µM | Cc1cc(Nc2nccc(C(F)(F)F)n2)cc(-c2cnc(C3(O)CCCN(C(=O)Cn4ccnn4)CC3)s2)c1 (single isomer, unassigned) [Example 54D-53] |
| < 0.1 µM | Cc1cc(Nc2nccc(C(F)(F)F)n2)cc(-c2cnc(C3(O)CCCN(C(=O)c4nnnn4C)CC3)s2)c1 (single isomer, unassigned) [Example 54D-58] |
| < 0.1 µM | Cc1cc(Nc2nccc(C(F)(F)F)n2)cc(-c2cnc(C3(O)CCCN(C(=O)Cc4nnn[nH]4)CC3)s2)c1 (single isomer, unassigned) [Example 54D-60] |
| < 0.1 µM | CCOC(=O)CC(=O)N1CCCC(O)(c2ncc(-c3cc(C)cc(Nc4nccc(C(F)(F)F)n4)c3)s2)CC1 (single isomer, unassigned) [Example 54D-74] |
| < 0.1 µM | Cc1cc(Nc2nccc(C(F)(F)F)n2)cc(-c2cnc(C3(O)CCCN(C(=O)C(C)(CO)CO)CC3)s2)c1 (single isomer, unassigned) [Example 54D-80] |
| < 0.1 µM | Cc1cc(Nc2nccc(C(F)(F)F)n2)cc(-c2cnc(C3(O)CCCN(C(=O)c4[nH]nnc4Cl)CC3)s2)c1 (single isomer, unassigned) [Example 54D-101] |
| < 0.1 µM | Cc1cc(Nc2nccc(C(F)(F)F)n2)cc(-c2cnc(C3(O)CCCN(C(=O)c4nn[nH]c4C(F)(F)F)CC3)s2)c1 (single isomer, unassigned) [Example 54D-108] |
| < 0.1 µM | Cc1cc(Nc2nccc(C(F)(F)F)n2)cc(-c2cnc(C3(O)CCCN(C(=O)c4n[nH]c(C(F)(F)F)n4)CC3)s2)c1 (single isomer, unassigned) [Example 54D-110] |
| < 0.1 µM | Cc1cc(Nc2nccc(C(F)(F)F)n2)cc(-c2cnc(C3(O)CCCN(S(N)(=O)=O)CC3)s2)c1 (single isomer, unassigned) [Example 54D-117] |
| < 0.1 µM | Cc1cc(Nc2nccc(C(F)(F)F)n2)cc(-c2cnc(C3(O)CCCN(C(N)=O)CC3)s2)c1 (single isomer, unassigned) [Example 54D-120] |
| < 0.1 µM | Cc1cc(Nc2nccc(C(F)(F)F)n2)cc(-c2cnc(C3(O)CCCN(C(=O)CO)CC3)s2)c1 (single isomer, unassigned) [Example 54D-123] |
| < 0.1 µM | Cc1cc(Nc2nccc(C(F)(F)F)n2)cc(-c2cnc(C3(O)CCCN(C(=O)c4nc[nH]n4)CC3)s2)c1 (single isomer, unassigned) [Example 54D-125] |
